Measured values from patent publication US5294611A, “Angiotensin II receptor blocking 2,3,6 substituted quinazolinones” (American Cyanamid Company, priority 1993, dated 1994).
Like-named read-outs stand apart in the source and are kept apart here.

Tested on: Angiotensin II (AII) vasopressor response
Experiment: AII Challenge: antagonism of angiotensin II vasopressor response in conscious spontaneously hypertensive rats
Format: in vivo, rat (male okamoto-Aoki SHR)
Conditions: for inhibition in vivo at 1 mg/kg / inhibition in vivo at 3 mg/kg / inhibition in vivo at 5 mg/kg: Rattus norvegicus; for inhibition in vivo at 1 mg/kg / inhibition in vivo at 3 mg/kg: iv; for inhibition in vivo at 1 mg/kg / inhibition in vivo at 3 mg/kg / inhibition in vivo at 5 mg/kg / Average Change: SHR n=2; for inhibition in vivo at 3 mg/kg / inhibition in vivo at 5 mg/kg: read-out: Inhibition; for inhibition in vivo at 5 mg/kg: po
Summary of the method: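 Conscious male SHR (16–20 weeks, ~330 g) cannulated under local procaine, blood pressure recorded via transducer. Angiotensin II (human) 0.05 and 0.1 ug/kg i.v. given before and after test compound dosed i.v., i.p. or orally; response measured as rise in systolic pressure (mmHg).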

## CCCCc1nc2ccc([C@H]3[C@@H]4CCC[C@@H]4ON3C)cc2c(=O)n1Cc1ccc(-c2ccccc2-c2nnn[nH]2)cc1 (relative stereo) [Example 50]
0.5 h, 1 mg/kg I.V., AII 0.05 mcg/kg IV, 30 min post dose
  inhibition in vivo at 1 mg/kg: 17%
0.5 h, 1 mg/kg I.V., AII 0.1 mcg/kg IV, 30 min post dose
  inhibition in vivo at 1 mg/kg: 39%
0.5 h, 3 mg/kg I.V., AII 0.05 mcg/kg IV, 30 min post dose
  inhibition in vivo at 3 mg/kg: 64%
0.5 h, 3 mg/kg I.V., AII 0.1 mcg/kg IV, 30 min post dose
  inhibition in vivo at 3 mg/kg: 66%
1 h, 1 mg/kg I.V., AII 0.05 mcg/kg IV, 60 min post dose
  inhibition in vivo at 1 mg/kg: 17%
1 h, 1 mg/kg I.V., AII 0.1 mcg/kg IV, 60 min post dose
  inhibition in vivo at 1 mg/kg: 27%
1 h, 3 mg/kg I.V., AII 0.05 mcg/kg IV, 60 min post dose
  inhibition in vivo at 3 mg/kg: 70%
1 h, 3 mg/kg I.V., AII 0.1 mcg/kg IV, 60 min post dose
  inhibition in vivo at 3 mg/kg: 65%
2 h, 1 mg/kg I.V., AII 0.05 mcg/kg IV, 120 min post dose
  inhibition in vivo at 1 mg/kg: 17%
2 h, 1 mg/kg I.V., AII 0.1 mcg/kg IV, 120 min post dose
  inhibition in vivo at 1 mg/kg: 35%
2 h, 3 mg/kg I.V., AII 0.05 mcg/kg IV, 120 min post dose
  inhibition in vivo at 3 mg/kg: 66%
2 h, 3 mg/kg I.V., AII 0.1 mcg/kg IV, 120 min post dose
  inhibition in vivo at 3 mg/kg: 75%
3 h, 1 mg/kg I.V., AII 0.05 mcg/kg IV, 180 min post dose
  inhibition in vivo at 1 mg/kg: 25%
3 h, 1 mg/kg I.V., AII 0.1 mcg/kg IV, 180 min post dose
  inhibition in vivo at 1 mg/kg: 33%
3 h, 3 mg/kg I.V., AII 0.05 mcg/kg IV, 180 min post dose
  inhibition in vivo at 3 mg/kg: 59%
3 h, 3 mg/kg I.V., AII 0.1 mcg/kg IV, 180 min post dose
  inhibition in vivo at 3 mg/kg: 68%
4 h, 1 mg/kg I.V., AII 0.05 mcg/kg IV, 240 min post dose
  inhibition in vivo at 1 mg/kg: -8%
4 h, 1 mg/kg I.V., AII 0.1 mcg/kg IV, 240 min post dose
  inhibition in vivo at 1 mg/kg: -16%
5 h, 1 mg/kg I.V., AII 0.05 mcg/kg IV, 300 min post dose
  inhibition in vivo at 1 mg/kg: -25%
5 h, 1 mg/kg I.V., AII 0.1 mcg/kg IV, 300 min post dose
  inhibition in vivo at 1 mg/kg: -11%
16.5 h, 1 mg/kg I.V., AII 0.05 mcg/kg IV, 990 min post dose (so in the source)
  inhibition in vivo at 1 mg/kg: 20%
16.5 h, 1 mg/kg I.V., AII 0.1 mcg/kg IV, 990 min post dose (so in the source)
  inhibition in vivo at 1 mg/kg: 9%
[…], 3 mg/kg I.V., AII 0.05 mcg/kg IV, 90 min post dose
  inhibition in vivo at 3 mg/kg: 80%
[…], 3 mg/kg I.V., AII 0.1 mcg/kg IV, 90 min post dose
  inhibition in vivo at 3 mg/kg: 52%
0.5 h, 5 mg/kg P.O., AII 0.05 mcg/kg IV, 30 min post dose
  inhibition in vivo at 5 mg/kg: 47%
0.5 h, 5 mg/kg P.O., AII 0.1 mcg/kg IV, 30 min post dose
  inhibition in vivo at 5 mg/kg: 25%
1 h, 5 mg/kg P.O., AII 0.05 mcg/kg IV, 60 min post dose
  inhibition in vivo at 5 mg/kg: 47%
1 h, 5 mg/kg P.O., AII 0.1 mcg/kg IV, 60 min post dose
  inhibition in vivo at 5 mg/kg: 32%
2 h, 5 mg/kg P.O., AII 0.05 mcg/kg IV, 120 min post dose
  inhibition in vivo at 5 mg/kg: 68%
3 h, 5 mg/kg P.O., AII 0.05 mcg/kg IV, 180 min post dose
  inhibition in vivo at 5 mg/kg: 35%
3 h, 5 mg/kg P.O., AII 0.1 mcg/kg IV, 180 min post dose
  inhibition in vivo at 5 mg/kg: 18%
[…], 5 mg/kg P.O., AII 0.05 mcg/kg IV, 90 min post dose
  inhibition in vivo at 5 mg/kg: 53%
[…], 5 mg/kg P.O., AII 0.1 mcg/kg IV, 90 min post dose
  inhibition in vivo at 5 mg/kg: 52%
1 mg/kg I.V., AII 0.05 mcg/kg IV, 30 min post dose
  Average Change: 25 mmHg
1 mg/kg I.V., AII 0.05 mcg/kg IV, 60 min post dose
  Average Change: 25 mmHg
1 mg/kg I.V., AII 0.05 mcg/kg IV, 120 min post dose
  Average Change: 25 mmHg
1 mg/kg I.V., AII 0.05 mcg/kg IV, 180 min post dose
  Average Change: 22.5 mmHg
1 mg/kg I.V., AII 0.05 mcg/kg IV, 240 min post dose
  Average Change: 32.5 mmHg
1 mg/kg I.V., AII 0.05 mcg/kg IV, 300 min post dose
  Average Change: 37.5 mmHg
1 mg/kg I.V., AII 0.05 mcg/kg IV, 990 min post dose (so in the source)
  Average Change: 24 mmHg
1 mg/kg I.V., AII 0.1 mcg/kg IV, 30 min post dose
  Average Change: 25 mmHg
1 mg/kg I.V., AII 0.1 mcg/kg IV, 60 min post dose
  Average Change: 30 mmHg
1 mg/kg I.V., AII 0.1 mcg/kg IV, 120 min post dose
  Average Change: 26.5 mmHg
1 mg/kg I.V., AII 0.1 mcg/kg IV, 180 min post dose
  Average Change: 27.5 mmHg
1 mg/kg I.V., AII 0.1 mcg/kg IV, 240 min post dose
  Average Change: 47.5 mmHg
1 mg/kg I.V., AII 0.1 mcg/kg IV, 300 min post dose
  Average Change: 45.5 mmHg
1 mg/kg I.V., AII 0.1 mcg/kg IV, 990 min post dose (so in the source)
  Average Change: 37.5 mmHg
3 mg/kg I.V., AII 0.05 mcg/kg IV, 30 min post dose
  Average Change: 20 mmHg
3 mg/kg I.V., AII 0.05 mcg/kg IV, 60 min post dose
  Average Change: 16.5 mmHg
3 mg/kg I.V., AII 0.05 mcg/kg IV, 90 min post dose
  Average Change: 11 mmHg
3 mg/kg I.V., AII 0.05 mcg/kg IV, 120 min post dose
  Average Change: 18.5 mmHg
3 mg/kg I.V., AII 0.05 mcg/kg IV, 180 min post dose
  Average Change: 22.5 mmHg
3 mg/kg I.V., AII 0.1 mcg/kg IV, 30 min post dose
  Average Change: 18.5 mmHg
3 mg/kg I.V., AII 0.1 mcg/kg IV, 60 min post dose
  Average Change: 19 mmHg
3 mg/kg I.V., AII 0.1 mcg/kg IV, 90 min post dose
  Average Change: 26.5 mmHg
3 mg/kg I.V., AII 0.1 mcg/kg IV, 120 min post dose
  Average Change: 14 mmHg
3 mg/kg I.V., AII 0.1 mcg/kg IV, 180 min post dose
  Average Change: 17.5 mmHg
5 mg/kg P.O., AII 0.05 mcg/kg IV, 30 min post dose
  Average Change: 22.5 mmHg
5 mg/kg P.O., AII 0.05 mcg/kg IV, 60 min post dose
  Average Change: 22.5 mmHg
5 mg/kg P.O., AII 0.05 mcg/kg IV, 90 min post dose
  Average Change: 20 mmHg
5 mg/kg P.O., AII 0.05 mcg/kg IV, 120 min post dose
  Average Change: 13.5 mmHg
5 mg/kg P.O., AII 0.05 mcg/kg IV, 180 min post dose
  Average Change: 27.5 mmHg
5 mg/kg P.O., AII 0.1 mcg/kg IV, 30 min post dose
  Average Change: 32 mmHg
5 mg/kg P.O., AII 0.1 mcg/kg IV, 60 min post dose
  Average Change: 29 mmHg
5 mg/kg P.O., AII 0.1 mcg/kg IV, 90 min post dose
  Average Change: 20.5 mmHg
5 mg/kg P.O., AII 0.1 mcg/kg IV, 120 min post dose
  Average Change: 22.5 mmHg
5 mg/kg P.O., AII 0.1 mcg/kg IV, 180 min post dose
  Average Change: 35 mmHg
Single SHR, 5 mg/kg P.O., AII 0.1 mcg/kg IV, 180 min post dose
  Change: 35 mmHg
